The results in this text go back to US20240317721A1, “PYRAZOLYL DERIVATIVES AS INHIBITORS OF THE KRAS MUTANT PROTEIN” (NOVARTIS AG, priority 2021, published 2024).

Where only a bound is given, the exact number is not on record here.

The target in the first experiment is KRasG12C mutant (Homo sapiens (Human), UniProt P01116, G12C). Put plainly: covalent competition assay. Type of experiment: binding. To be noted: comparison of the two atropisomers; a(R) vs a(S) configuration.
As for `C=CC(=O)N1CC2(CC(n3nc(N4CCN(C(C)=O)C[C@]4(C)CC)c(-c4c(Cl)c(C)cc5[nH]ncc45)c3C)C2)C1` (single isomer, unassigned) [Example 121a], the “relative activity of the atropisomers of a pair in the covalent competition assay” value is reported as “less active atropisomer”.

Regarding `C=CC(=O)N1CC2(CC(n3nc(N4CCN(C(C)=O)C[C@]4(C)CC)c(-c4c(Cl)c(C)cc5[nH]ncc45)c3C)C2)C1` (single isomer, unassigned) [Example 121b], the “relative activity of the atropisomers of a pair in the covalent competition assay” value was “most active atropisomer”.

A further experiment concerns the target KRasG12C (Homo sapiens (Human), UniProt P01116, G12C). Put plainly: MS-based assay assessing % modification of KRasG12C over compound concentrations and time points. Type of experiment: biochemical. To be noted: non-labeled ligand, internally determined, read-out: (kinact/KI)probe, second order rate constant for modification of KRasG12C.
On to `C=CC(=O)Nc1ccc(-n2c(C)c(-c3c(C)ccc4[nH]ncc34)c3cccnc32)c(F)c1` [Compound A, N-(3-fluoro-4-(2-methyl-3-(5-methyl-1H-indazol-4-yl)-1H-pyrrolo[2,3-b]pyridin-1-yl)phenyl)acrylamide], for which the kinact/KI was approximately 5000 M⁻¹ s⁻¹.

A further experiment deals with KRasG12C (M1-K169, biotinylated on the N-terminus) (Homo sapiens (Human), UniProt P01116, G12C). Put plainly: Covalent competition assay: scintillation proximity assay (SPA) quantifying covalent modification of KRASG12C. Type of experiment: binding. As to conditions: competition with radiolabeled covalent probe (Compound B/Compound A), 2 hours incubation, 10 nM KRasG12C. The essentials: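 Scintillation proximity readout after streptavidin bead capture (30 min) of biotinylated KRasG12C(M1-K169):GDP, 10 nM final, which was covalently labelled over 2 h by 25 nM radio-probe plus 475 nM cold probe unless blocked by compound.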
Take `C=CC(=O)N1CC2(CC(n3nc(N4CCN(C(C)=O)C[C@]4(C)CC)c(-c4c(Cl)c(C)cc5[nH]ncc45)c3C)C2)C1` (single isomer, unassigned) [Example 121a]: the IC50 was more than 5000 nM. On the same count and under the same terms, for `C=CC(=O)N1CC2(CC(n3nc(N4CCN(C(C)=O)C[C@]4(C)CC)c(-c4c(Cl)c(C)cc5[nH]ncc45)c3C)C2)C1` (single isomer, unassigned) [Example 121b] the value was 8 nM; for `C=CC(=O)N1CC2(CC(n3nc(N4CCN(C[C@@H]5COCCO5)C[C@]4(C)CC)c(-c4c(O)cccc4Cl)c3C)C2)C1` [Example 111, 1-(6-(3-((S)-4-(((R)-1,4-dioxan-2-yl)methyl)-2-ethyl-2-methylpiperazin-1-yl)-4-(2-chloro-6-hydroxyphenyl)-5-methyl-1H-pyrazol-1-yl)-2-azaspiro[3.3]heptan-2-yl)prop-2-en-1-one], 1700 nM.

For `C=CC(=O)N1CC2(CC(n3nc(N4CCN(C5COC5)C5COCC54)c(-c4c(Cl)c(C)cc5[nH]ncc45)c3C)C2)C1` (stereo not drawn) [Example 136b, 1-(6-(4-(5-chloro-6-methyl-1H-indazol-4-yl)-5-methyl-3-((4aS*,7aS*)-4-(oxetan-3-yl)hexahydrofuro[3,4-b]pyrazin-1(2H)-yl)-1H-pyrazol-1-yl)-2-azaspiro[3.3]heptan-2-yl)prop-2-en-1-one], the IC50 is more than 5000 nM. On to `C=CC(=O)N1CC2(CC(n3nc(N4CCN(C5COC5)C5COCC54)c(-c4c(Cl)c(C)cc5[nH]ncc45)c3C)C2)C1` (stereo not drawn) [Example 137a, 1-(6-(4-(5-chloro-6-methyl-1H-indazol-4-yl)-5-methyl-3-((4aS*,7aS*)-4-(oxetan-3-yl)hexahydrofuro[3,4-b]pyrazin-1(2H)-yl)-1H-pyrazol-1-yl)-2-azaspiro[3.3]heptan-2-yl)prop-2-en-1-one], for which the IC50 is more than 5000 nM.

Turning to `Cc1cc2[nH]ncc2c(-c2c(N3CCN(C4COC4)CC34CCC4)nn(C3CC4(C3)CN(C(=O)[C@@H]3CO3)C4)c2C)c1Cl` [Example 139, (S)-(6-(4-(5-chloro-6-methyl-1H-indazol-4-yl)-5-methyl-3-(8-(oxetan-3-yl)-5,8-diazaspiro[3.5]nonan-5-yl)-1H-pyrazol-1-yl)-2-azaspiro[3.3]heptan-2-yl)(oxiran-2-yl)methanone], the IC50 was 450 nM. `C=CC(=O)N1CC2(CC(n3nc(N4CCN(C5COC5)CC45CCOC5)c(-c4c(Cl)c(C)cc5[nH]ncc45)c3C)C2)C1` (centres unmarked) [Example 141a, 1-(6-(4-(5-chloro-6-methyl-1H-indazol-4-yl)-5-methyl-3-(9-(oxetan-3-yl)-2-oxa-6,9-diazaspiro[4.5]decan-6-yl)-1H-pyrazol-1-yl)-2-azaspiro[3.3]heptan-2-yl)prop-2-en-1-one]: the IC50 was more than 5000 nM. On the same count and under the same terms, for `C=CC(=O)N1CC2(CC(n3nc(N4CCN(C5COC5)CC45CCOC5)c(-c4c(Cl)c(C)cc5[nH]ncc45)c3C)C2)C1` (centres unmarked) [Example 142b, 1-(6-(4-(5-chloro-6-methyl-1H-indazol-4-yl)-5-methyl-3-(9-(oxetan-3-yl)-2-oxa-6,9-diazaspiro[4.5]decan-6-yl)-1H-pyrazol-1-yl)-2-azaspiro[3.3]heptan-2-yl)prop-2-en-1-one] the value was more than 5000 nM; for `C=CC(=O)N1CC2(CC(n3nc(N4CCN(CC(C)(C)O)CC45CCC5)c(-c4c(OC)c(Cl)cc5[nH]ncc45)c3C)C2)C1` [Example 168, 1-(6-(4-(6-chloro-5-methoxy-1H-indazol-4-yl)-3-(8-(2-hydroxy-2-methylpropyl)-5,8-diazaspiro[3.5]nonan-5-yl)-5-methyl-1H-pyrazol-1-yl)-2-azaspiro[3.3]heptan-2-yl)prop-2-en-1-one], 302 nM; for `C=CC(=O)N1CC2(CC(n3nc(N4CCN(C[C@@H]5COCCO5)C[C@]4(C)CC)c(-c4c(Cl)c(C)cc5[nH]ncc45)c3C#N)C2)C1` [Example 176, 3-((S)-4-(((R)-1,4-dioxan-2-yl)methyl)-2-ethyl-2-methylpiperazin-1-yl)-1-(2-acryloyl-2-azaspiro[3.3]heptan-6-yl)-4-(5-chloro-6-methyl-1H-indazol-4-yl)-1H-pyrazole-5-carbonitrile], less than 5 nM.

Take `C=CC(=O)N1CC2(CC(n3cc(-c4c(Cl)c(C)cc5[nH]ncc45)c(N4CC[C@@H](CN5CCOCC5)CC4(C)C)n3)C2)C1` [Example 223, (R)-1-(6-(4-(5-chloro-6-methyl-1H-indazol-4-yl)-3-(2,2-dimethyl-4-(morpholinomethyl)piperidin-1-yl)-1H-pyrazol-1-yl)-2-azaspiro[3.3]heptan-2-yl)prop-2-en-1-one]: the IC50 stood at 600 nM.
